This is an account of results in patent publication US20250170126A1 (MITSUBISHI TANABE PHARMA CORPORATION, priority 2022, published 2025).

Counter-ions that a name gives are not always drawn.

The target of this assay is Human B0AT1 (Homo sapiens (Human), UniProt Q695T7). Nature of the assay: hB0AT1 inhibitory test (phenylalanine uptake). The assay is classed as cell-based. The note with it: Human B0AT1 stable expression CHO cells; [3H]-L-phenylalanine uptake, phenylalanine 0.25 mM. An outline of the steps: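 CHO cells stably expressing human B0AT1, in sodium-containing HEPES buffer with 0.01% BSA, preincubated with compound (0.5% DMSO) 30 min or longer at ambient temperature. Uptake of [3H]-L-phenylalanine (0.25 mM final) read by scintillation, analysed at 100-200 min; non-specific uptake from […] N-(4-bromophenyl)-3,5-dichloro-2-hydroxybenzamide, IC50 by logistic nonlinear regression.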
Sequence of Human B0AT1 (Q695T7 whole entry): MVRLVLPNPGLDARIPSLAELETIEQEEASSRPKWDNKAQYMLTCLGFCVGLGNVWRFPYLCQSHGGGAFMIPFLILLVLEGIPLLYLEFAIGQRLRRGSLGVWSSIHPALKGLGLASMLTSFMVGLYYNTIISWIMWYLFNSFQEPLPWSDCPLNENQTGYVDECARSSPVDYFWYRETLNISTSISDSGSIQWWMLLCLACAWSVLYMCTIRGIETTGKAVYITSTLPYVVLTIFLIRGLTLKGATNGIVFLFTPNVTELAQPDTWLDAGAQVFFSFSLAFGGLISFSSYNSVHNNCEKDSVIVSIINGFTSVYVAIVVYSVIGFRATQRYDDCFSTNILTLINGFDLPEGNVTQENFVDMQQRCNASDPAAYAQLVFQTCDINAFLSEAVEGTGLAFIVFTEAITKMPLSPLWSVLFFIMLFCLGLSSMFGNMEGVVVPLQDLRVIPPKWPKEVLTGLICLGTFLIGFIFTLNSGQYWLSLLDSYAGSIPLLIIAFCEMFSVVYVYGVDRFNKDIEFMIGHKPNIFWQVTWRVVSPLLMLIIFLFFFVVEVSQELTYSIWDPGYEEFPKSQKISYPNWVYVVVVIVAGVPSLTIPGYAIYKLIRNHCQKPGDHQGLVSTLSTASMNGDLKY
In turn, `O=C(/C=C/c1ccc(C(F)(F)F)cc1)NCC(=O)N1CCn2ncc(C(=O)N3CCC(F)(F)C3)c2C1` [I-280] gave an IC50 of 49 nM.

Regarding `CN1CCN(C(=O)CNC(=O)/C=C/c2ccc(C3CC3)cc2)CC1` [I-110], the IC50 was 98 nM.

Take `COCC(C)N(Cc1ccccn1)C(=O)CNC(=O)/C=C/c1ccc(C(F)(F)F)cc1` (stereo not drawn) [I-83]: the IC50 was 78 nM.

Consider `CN1CCN(C(=O)CNC(=O)/C=C/c2ccc(C(F)(F)F)cc2)CC1` [I-2], for which the IC50 is 53 nM.

The molecule `NS(=O)(=O)c1ccc2c(c1)CCN(C(=O)CNC(=O)/C=C/c1ccc(C(F)(F)F)cc1)C2` [I-220] came in with an IC50 of 43 nM.

`O=C(/C=C/c1ccc(C(F)(F)F)cc1)NCC(=O)N1Cc2ncsc2C1` [I-62] yielded an IC50 of 77 nM.

Regarding `O=C(/C=C/c1ccc(C(F)(F)F)cc1)NCC(=O)N1CCS(=O)(=O)CC1` [I-9], the midpoint of inhibition, the IC50, lay at 1590 nM.

`O=C(/C=C/c1ccc(C(F)(F)F)cc1)NCC(=O)N1CCn2nncc2C1` [I-80] showed an IC50 of 42 nM.

Regarding `O=C(/C=C/c1ccc(C(F)(F)F)cc1)NCC(=O)N1CCc2c(cccc2C(F)(F)F)C1` [I-194], the IC50 was 140 nM.

`O=C(/C=C/c1ccc(C(F)(F)F)cc1)NCC(=O)N1CCn2ncnc2C1` [I-35] had an IC50 of 51 nM.

Molecule `COCCN(C)C(=O)CN(CCOC)C(=O)CNC(=O)/C=C/c1ccc(C(F)(F)F)cc1` [I-147, (E)-N-[2-[2-methoxyethyl-[2-[2-methoxyethyl(methyl)amino]-2-oxoethyl]amino]-2-oxoethyl]-3-[4-(trifluoromethyl)phenyl]prop-2-enamide] displayed an IC50 of 298 nM.

As for `CS(=O)(=O)[C@@H]1CCN(C(=O)CNC(=O)/C=C/c2ccc(C(F)(F)F)cc2)C1` [I-47], the IC50 was found to be 550 nM.

For `N#Cc1ccc2c(c1)CN(C(=O)CNC(=O)/C=C/c1ccc(C(F)(F)F)cc1)CC2` [I-197], the IC50 amounted to 25 nM.

Molecule `O=C(/C=C/c1ccc(C(F)(F)F)cc1)NCC(=O)N1CCN2C(=O)CCC2C1` (stereo not drawn) [I-43] came in with an IC50 of 80 nM.

Take `O=C(/C=C/c1ccc(C(F)(F)F)cc1)NCC(=O)N1CCN2C(=O)OC[C@@H]2C1` [I-33]: the IC50 worked out at 319 nM.

`Cn1ncc2c1CCN(C(=O)CNC(=O)/C=C/c1ccc(C(F)(F)F)cc1)C2` [I-77] came in with an IC50 of 70 nM.

For the molecule `CN(C)C(=O)[C@H]1CCN(C(=O)CNC(=O)/C=C/c2ccc(C(F)(F)F)cc2)C1` [I-145, (3S)-N,N-dimethyl-1-[2-[[(E)-3-[4-(trifluoromethyl)phenyl]prop-2-enoyl]amino]acetyl]pyrrolidine-3-carboxamide], the IC50 worked out at 1700 nM.

`Cc1nnc([C@H]2CN(C)CCN2C(=O)CNC(=O)/C=C/c2ccc(C(F)(F)F)cc2)o1` [I-121]: it took 81 nM to reach half-maximal inhibition (IC50).

The molecule `Cc1nc2n(n1)CCN(C(=O)CNC(=O)/C=C/c1ccc(C(F)(F)F)cc1)C2` [I-174] yielded an IC50 of 48 nM.

As to `C[C@H]1Cn2nccc2CN1C(=O)CNC(=O)/C=C/c1ccc(C(F)(F)F)cc1` [I-181], inhibition was half-maximal at 60 nM (IC50).

`O=C(/C=C/c1ccc(C(F)(F)F)cc1)NCC(=O)N1CCn2ncnc2C12CC2` [I-207] yielded a 50% inhibitory concentration (IC50) of 324 nM.

`COc1cc2c(cn1)CN(C(=O)CNC(=O)/C=C/c1ccc(C(F)(F)F)cc1)CC2` [I-92] had an IC50 of 20 nM.

Take `O=C(/C=C/c1ccc(C(F)(F)F)cc1)NCC(=O)N1Cc2cncnc2C1` [I-68]: half-maximal inhibition (IC50) was put at 58 nM.

In turn, `CNC(=O)c1cc2n(n1)CCN(C(=O)CNC(=O)/C=C/c1ccc(C(F)(F)F)cc1)C2` [I-203] had a half-maximal inhibitory concentration (IC50) of 45 nM.

The molecule `O=C(/C=C/c1ccc(C(F)(F)F)cc1)NCC(=O)N1CCc2oncc2C1` [I-39] had an IC50 of 29 nM.

For `CCOc1ccc(/C=C/C(=O)NCC(=O)N2CCN(C)CC2)cc1` [I-117], the IC50 is 199 nM.

For the molecule `O=C(/C=C/c1ccc(C(F)(F)F)cc1)NCC(=O)N1CCCc2ncccc21` [I-185], the IC50 is 31 nM.

Molecule `CN(C)C(=O)c1cnn2c1CN(C(=O)CNC(=O)/C=C/c1ccc(C(F)(F)F)cc1)CC2` [I-226] registered an IC50 of 67 nM.

For `O=C(/C=C/c1ccc(C(F)(F)F)cc1)NCC(=O)N1CC[C@H](n2cccn2)C1` [I-176], half-maximal inhibition (IC50) was put at 185 nM.

In turn, `COCCN(CC(=O)N(C)C)C(=O)CNC(=O)/C=C/c1ccc(C(F)(F)F)cc1` [I-149, (E)-N-[2-[[2-(dimethylamino)-2-oxoethyl]-(2-methoxyethyl)amino]-2-oxoethyl]-3-[4-(trifluoromethyl)phenyl]prop-2-enamide] yielded an IC50 of 170 nM.

In turn, `O=C(/C=C/c1ccc(C(F)(F)F)cc1)NCC(=O)N1CCc2nncn2CC1` [I-20] had an IC50 of 270 nM.

Molecule `CN1CCN(C(=O)CNC(=O)/C=C/c2ccc(OCC3CC3)cc2)CC1` [I-114] came in with an IC50 of 925 nM.

In turn, `O=C(/C=C/c1ccc(C(F)(F)F)cc1)NCC(=O)N1CCCC(n2cccn2)C1` (stereo not drawn) [I-74] had an IC50 of 1310 nM.

As to `O=C(/C=C/c1ccc(C(F)(F)F)cc1)NCC(=O)N1CCn2nc(C(=O)O)cc2C1` [I-273], the 50% inhibitory concentration (IC50) stood at 125 nM.

Turning to `O=C(/C=C/c1ccc(C(F)(F)F)cc1)NCC(=O)N1CCc2ccc(C(=O)O)cc2C1` [I-270], the IC50 was determined as 168 nM.

`Cn1cc2c(n1)CN(C(=O)CNC(=O)/C=C/c1ccc(C(F)(F)F)cc1)C2` [I-70] registered an IC50 of 136 nM.

The molecule `O=C(/C=C/c1ccc(C(F)(F)F)cc1)NCC(=O)N1CCc2cncnc2C1` [I-84] displayed an IC50 of 54 nM.

On to `O=C(/C=C/c1ccc(C(F)(F)F)cc1)NCC(=O)N1CCNCC1` [I-133, (E)-N-(2-oxo-2-piperazin-1-ylethyl)-3-[4-(trifluoromethyl)phenyl]prop-2-enamide hydrochloride], for which half-maximal inhibition (IC50) was put at 69 nM.

In turn, `COCC(C)N(Cc1nnc(C)o1)C(=O)CNC(=O)/C=C/c1ccc(C(F)(F)F)cc1` (stereo not drawn) [I-210] came in with an IC50 of 165 nM.

In turn, `NC(=O)c1cnn2c1CN(C(=O)CNC(=O)/C=C/c1ccc(C(F)(F)F)cc1)CC2` [I-224] returned an IC50 of 44 nM.

For the molecule `CC(C)(O)c1cc2n(n1)CCN(C(=O)CNC(=O)/C=C/c1ccc(C(F)(F)F)cc1)C2` [I-129, (E)-N-[2-[2-(1-hydroxy-1-methylethyl)-6,7-dihydro-4H-pyrazolo [1,5-a]pyrazin-5-yl]-2-oxoethyl]-3-[4-(trifluoromethyl)phenyl]prop-2-enamide], half-maximal inhibition (IC50) was put at 66 nM.

As to `O=C(/C=C/c1ccc(C(F)(F)F)cc1)NCC(=O)N(CCO)Cc1ccccn1` [I-85], it took 186 nM to reach half-maximal inhibition (IC50).

`O=C(/C=C/c1ccc(C(F)(F)F)cc1)NCC(=O)N1CNC(=O)C1` [I-31] had an IC50 of 106 nM.

The molecule `O=C(/C=C/c1ccc(C(F)(F)F)cc1)NCC(=O)N1CC[C@@H](Cn2cccn2)C1` [I-214] showed an IC50 of 728 nM.

`O=C(/C=C/c1ccc(C(F)(F)F)cc1)NCC(=O)N1CCn2nccc2C1` [I-93] gave an IC50 of 31 nM.

In turn, `CN1CCN(C(=O)CNC(=O)/C=C/c2ccc(C(F)(F)F)cc2)C(c2ccccc2)C1` (stereo not drawn) [I-45] returned an IC50 of 24 nM.

Turning to `O=C(/C=C/c1ccc(C(F)(F)F)cc1)NCC(=O)N1CC[C@@H](n2cccn2)C1` [I-177], half-maximal inhibition (IC50) required 87 nM.

The molecule `CN(C)C(=O)CNC(=O)/C=C/c1ccc(C(F)(F)F)cc1` [I-104] came in with an IC50 of 2030 nM.

`COCCN(Cc1ccccn1)C(=O)CNC(=O)/C=C/c1ccc(C(F)(F)F)cc1` [I-50] displayed an IC50 of 81 nM.

`COC1CN(C(=O)CNC(=O)/C=C/c2ccc(C(F)(F)F)cc2)Cc2ccc(Br)cc21` (stereo not drawn) [I-217] showed an IC50 of 114 nM.

`O=C(/C=C/c1ccc(C(F)(F)F)cc1)NCC(=O)N1CCn2nc(C(=O)O)c(-c3ccc(F)cc3)c2C1` [I-267] yielded an IC50 of 83 nM.

In turn, `COCCN(Cc1nc(C)c(C)s1)C(=O)CNC(=O)/C=C/c1ccc(C(F)(F)F)cc1` [I-57] displayed an IC50 of 96 nM.

`O=C(/C=C/c1ccc(C(F)(F)F)cc1)NCC(=O)N1CCn2nc(C(F)F)cc2C1` [I-282, (E)-N-[2-[2-(difluoromethyl)-6,7-dihydro-4H-pyrazolo [1,5-a]pyrazin-5-yl]-2-oxoethyl]-3-[4-(trifluoromethyl)phenyl]prop-2-enamide] returned an IC50 of 26 nM.

Regarding `Cc1nnc(CN(CC2(F)CCC2)C(=O)CNC(=O)/C=C/c2ccc(C(F)(F)F)cc2)o1` [I-212], the IC50 amounted to 43 nM.

`O=C(/C=C/c1ccc(C(F)(F)F)cc1)NCC(=O)N1Cc2ccnn2C[C@@H]1C(=O)O` [I-283, (6R)-5-[2-[[(E)-3-[4-(trifluoromethyl)phenyl]prop-2-enoyl]amino]acetyl]-6,7-dihydro-4H-pyrazolo[1,5-a]pyrazine-6-carboxylic acid] returned an IC50 of 361 nM.

For `O=C(/C=C/c1ccc(C(F)(F)F)cc1)NCC(=O)N1CCc2cc(C(=O)O)ccc2C1` [I-277], the IC50 was 143 nM.

`O=C(/C=C/c1ccc(C(F)(F)F)cc1)NCC(=O)N1CCOC(c2ccccc2)C1` (stereo not drawn) [I-14] showed an IC50 of 815 nM.

Regarding `CNC(=O)[C@@H]1C[C@H](n2cccn2)CN1C(=O)CNC(=O)/C=C/c1ccc(C(F)(F)F)cc1` [I-216], the IC50 is 161 nM.

Take `O=C(/C=C/c1ccc(C(F)(F)F)cc1)NCC(=O)N1Cc2ccccc2C(c2ccccc2)C1` (stereo not drawn) [I-183]: the IC50 turned out to be 80 nM.

In the case of `O=C(/C=C/c1ccc(C(F)(F)F)cc1)NCC(=O)N1CCn2nccc21` [I-180], the IC50 stood at 20 nM.

For orientation: IC50 means the concentration that gives 50% inhibition. A higher IC50 goes with lower potency.
